From patent publication US20090099167A1, “Organic compounds” (Novartis Institutes for Biomedical Research, priority 2004, published 2009)
pIC50: −log10 of the molar value.

Assays:
[1] = target: Cdk1/cycB (UniProt P06493); assay: Cdk1/cycB kinase assay, histone H1 substrate; format: biochemical, starfish; conditions: Table 5; read-out: CDK1/B, IC50 class
Outline: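 Active Cdk1/cycB was purified from starfish oocytes arrested in M phase with 1-methyladenine, using p9CKShs-sepharose. Reactions ran 20 min at ambient temperature and were stopped with EDTA. Phosphorylated product was captured on Immobilon P membranes, washed in H3PO4 and EtOH, and counted by scintillation.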

[2] = target: T1, Tek (Homo sapiens, UniProt Q02763); assay: Tek kinase inhibition, GST-fused kinase domain; format: biochemical; conditions: Table 5; read-out: Tek, IC50 class
T1 construct: N-terminally GST-fused (pAcG1, Pharmingen) KDR, Flt-1, Flk-1, Tek and PDGFR-β kinase domains are obtained from ProQinase, Freiburg, Germany; host or cells: Sf9 or High Five (baculovirus)
From the text: The inhibition of IGF-1R and Ins-R can be determined as follows: The baculovirus donor vector pfbgx3IGFIRcd is used to generate a recombinant baculovirus that expresses the amino acid region 950-1337 of the mature peptide cytoplasmic domain of the human IGF-IR. To generate the cDNA fragment encoding the amino acid region 919-1343 of the intra-cytoplasmic kinase domain of the human insulin receptor, pC5hInsR is used. The fragments of the human IGF-IR and Ins-R are cloned, expressed and small-scale purified as a factor Xa-cleavable glutathione-S-transferase (GST)-fusion protein using the Bac-to-Bac™ system (GIBCO BRL) of recombinant baculovirus generation. Virus containing media is collected from the transfected cell culture and used for infection to increase its titer. Virus containing media obtained after two rounds of infection is used for large-scale protein expression. Cell extracts are prepared and loaded onto a glutathione-Sepharose (Pharmacia) column. After washing, the GST-tagged proteins are then eluted with a glutathione-containing buffer. Purified protein is stored at −70° C. in elution buffer. Tyrosine protein kinase assays with purified GST-IGF-1R and GST-ins-R are carried in a final volume of 30 μl containing 20 mM Tris-HCl, pH 7.6, 10 mM MgCl2, 0.01 mM Na3VO4, 1% DMSO, 1 mM DTT, 3 μg/ml poly(Glu,Tyr) 4:1 and 10 μM ATP (γ-[^33P]-ATP 0.1 μCi). The assay is performed in 96-well plates at ambient temperature for 20 min and terminated by addition of 25 μl 0.05 M EDTA pH 7.0. An aliquot of 40 μl is spotted with a multichannel dispenser on Whatman P81 membranes mounted in a Millipore Microtiter filter manifold connected to a low vacuum source. After elimination of liquid, the membrane is transferred to a sequence of 4 washing baths containing 0.5% H3PO4 and one with EtOH (shaking incubation for 10 min each), dried, mounted onto a Hewlett Packard TopCount manifold added 10 μl Microscint® and counted. Compounds of formula (I) show up to 90% inhibition of Ins-R at 10,000 nM, preferably between 60-90% inhibition. The inhibition of Tek can be determined as follows: The procedure of the expression, purification and assay these kinases has been described. Fabbro et al., Pharmacol. Ther. 82(2-3) 293-301 (1999). In brief, the glutathione S-transferase (GST) gene from the pAcG1 vector (Pharmingen) is excised with EcoRV and EcoRI and inserted into the cloning site of the Fast-Bac baculoviral vector (GIBCO) creating a 5530 bp vector with N-terminal cloning sites derived from the pAcG1 fusion vector (FBG0). The C-terminal cloning site may be any cloning site (from the Fast-Bac vector) downstream of the N-terminal cloning site used. N-terminally GST-fused (pAcG1, Pharmingen) KDR, Flt-1, Flk-1, Tek and PDGFR-β kinase domains are obtained from ProQinase, Freiburg, Germany. Tek is recloned into the FBG1 vector by EcoRI excision and ligation into EcoRI digested FBG1 (FBG1-Tek). The coding sequences for the whole cytoplasmic domain of c-Kit (aa 544-976) and c-Fms (aa 538-972) are amplified by PCR from human uterus and from human bone marrow cDNA libraries (Clontech), respectively. The amplified DNA fragments are fused to GST by cloning them into FBG1 as BamHI-EcoRI insertions, to yield FBG1-c-Kit and FBG1-c-Fms. Tek is recloned into the FBG0 transfer vector by EcoRI excision and ligation into EcoRI digested FBG0 (FBG-Tie2/Tek). FGFR-1 and c-met kinase domains are obtained by PCR from human A431 cells. N-terminal primers contain an overhanging EcoRI site, while C-terminal primers contain a XhoI site to aid cloning into the transfer vectors. After digestion of both the PCR fragments and FBG0 the cleavage products are gel-purified and ligated together to form the kinase constructs (FBG-Met, FBG-FGFR-1).
Viruses for each of the kinases are made according to the protocol supplied by GIBCO. […]

[3] = target: HER-1 (Homo sapiens, UniProt P00533); assay: HER-1 kinase inhibition; format: biochemical; conditions: Table 5; read-out: HER-1, IC50 class

Measured: pIC50

T1 sequence (Q02763 824-1096 limits assumed, species assumed): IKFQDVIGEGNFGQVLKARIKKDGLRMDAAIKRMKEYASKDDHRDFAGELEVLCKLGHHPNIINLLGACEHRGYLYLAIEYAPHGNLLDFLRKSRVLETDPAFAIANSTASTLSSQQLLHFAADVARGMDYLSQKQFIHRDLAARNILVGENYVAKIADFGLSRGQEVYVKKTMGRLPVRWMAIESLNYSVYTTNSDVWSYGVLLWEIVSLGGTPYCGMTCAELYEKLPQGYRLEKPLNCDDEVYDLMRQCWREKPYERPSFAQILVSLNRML
HER-1, sequence (P00533 25-1210, species assumed): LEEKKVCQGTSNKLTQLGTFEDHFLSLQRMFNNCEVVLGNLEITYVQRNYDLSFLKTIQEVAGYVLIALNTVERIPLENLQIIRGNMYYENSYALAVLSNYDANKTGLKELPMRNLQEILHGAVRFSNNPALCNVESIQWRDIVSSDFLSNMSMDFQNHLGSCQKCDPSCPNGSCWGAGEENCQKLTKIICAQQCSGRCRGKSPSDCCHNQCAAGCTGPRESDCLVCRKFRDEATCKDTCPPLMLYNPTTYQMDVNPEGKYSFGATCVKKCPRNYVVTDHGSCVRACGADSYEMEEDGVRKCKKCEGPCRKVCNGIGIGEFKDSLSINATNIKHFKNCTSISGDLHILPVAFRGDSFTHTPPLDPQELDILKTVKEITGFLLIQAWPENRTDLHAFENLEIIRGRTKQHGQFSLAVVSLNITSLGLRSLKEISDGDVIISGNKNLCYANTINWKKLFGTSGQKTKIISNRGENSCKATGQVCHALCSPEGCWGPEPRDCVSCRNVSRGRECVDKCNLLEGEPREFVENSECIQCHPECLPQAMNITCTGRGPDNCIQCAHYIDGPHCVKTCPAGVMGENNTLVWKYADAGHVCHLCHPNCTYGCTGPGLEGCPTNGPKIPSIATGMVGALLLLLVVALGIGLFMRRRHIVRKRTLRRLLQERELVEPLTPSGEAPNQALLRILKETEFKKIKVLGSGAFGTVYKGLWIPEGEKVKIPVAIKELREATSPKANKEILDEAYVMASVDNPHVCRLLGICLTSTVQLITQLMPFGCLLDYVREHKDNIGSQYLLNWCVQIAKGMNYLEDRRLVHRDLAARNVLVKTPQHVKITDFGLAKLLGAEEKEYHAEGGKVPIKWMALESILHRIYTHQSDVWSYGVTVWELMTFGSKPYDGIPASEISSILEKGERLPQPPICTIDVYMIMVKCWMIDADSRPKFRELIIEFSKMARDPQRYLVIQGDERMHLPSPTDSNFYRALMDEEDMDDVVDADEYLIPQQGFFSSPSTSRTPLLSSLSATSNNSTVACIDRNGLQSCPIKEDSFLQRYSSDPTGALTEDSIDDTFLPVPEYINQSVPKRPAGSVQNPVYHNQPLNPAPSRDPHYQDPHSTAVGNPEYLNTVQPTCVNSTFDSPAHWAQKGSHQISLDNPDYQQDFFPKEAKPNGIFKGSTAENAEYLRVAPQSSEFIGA

Cc1nc2c(-c3cccc([N+]4([O-])CC[N+](C)([O-])CC4)c3)cnn2c(N)c1-c1ccc(F)cc1 (stereo not drawn) [Example 107, 6-(4-Fluoro-phenyl)-5-methyl-3-[3-(4-methyl-1,4-dioxy-piperazin-1-yl)-phenyl]-pyrazolo[1,5-a]pyrimidin-7-ylamine]
< 5.00: all assays above
